From US7416876B2, “N-carbobenzyloxy (N-CBZ)-deprotecting enzyme” (Bristol-Meyers Squibb Company, priority 2001, dated 2008)

Experiments:
[1] = system: recombinant N-CBZ-deprotecting enzyme; experiment: Deprotection with recombinant enzyme (cell extract from E. coli BL21 (DE3)(pBMS2000-cbz)); type: biochemical, Sphingomonas paucimobilis; settings: 0.5 mg substrate, 0.5 ml cell extract, 28° C., 1 hr, HPLC
Method: The reaction contained 0.5 mg of CBZ-L-phe and 0.5 ml of cell extract from E. coli BL21 (DE3)(pBMS2000-cbz) that expressed the deprotecting enzyme. Preparation of cell extract was as follows: 2 g of recombinant cells were suspended in 10 mL buffer A (50 mM phosphate buffer, pH 7.5, 1 mM EDTA), sonicated for 2 minutes (20 seconds pulse on and 30 seconds pulse off) using a model 550 Sonic Dismembrator from Misonix Inc., Farmingdale, N.Y. The disintegrated cells were centrifuged for 15 min at 8000 rpm at 4° C. and the resulting supernatant, referred to as a cell extract, was used for these studies. The reactions were carried out in a culture tube at 28° C. After 1 hr, samples were quenched with 1 ml of acetonitrile and analyzed by HPLC (described earlier).

[2] = system: CBZ-deprotecting enzyme (cell extracts of Sphingomonas paucimobilis ATCC 202027); experiment: CBZ-deprotection using cell extract; type: biochemical; settings: 42° C., 18-20 hours, HPLC
Method: (§1) HPLC analysis was performed using a Hewlett-Packard (HP) 1090 instrument with a Vydac C-18 reverse phase column. The mobile phase solvent A containing 0.1% trifluoroacetic acid (TFA) in water and solvent B containing 0.1% TFA in 70% acetonitrile: 30% water. The following gradient of solvent A and B was used for the separation of substrates and products:
(§2) 0-15 min: 50% B,15-25 min: 100% B, 25-26 min: 0% B, and 26-30 min: 0% B. The flow rate was 1 mL/min. The column temperature was ambient, and the detection wavelength was at 215 nm. Under these conditions, the retention times for Compound A, Compound B, CBZ-L-Phenylalanine and L-Phenylalanine are 15.48 min., 7.28 min., 16.99 min. and 7.35 min., respectively. All other CBZ-containing compounds were also analyzed using these conditions.
Preparation of cell extracts were carried out at 4-7° C. Cells were washed with 50 mM potassium phosphate buffer, pH 7.0, and the washed cells (100 g) were suspended in 500 mL of buffer A (50 mM phosphate buffer, pH 7.0 containing 10% glycerol, and 2 mM DTT). To the cell suspensions, 1 mM phenylmethylsulfonyl fluoride (PMSF) solution in isopropanol was added. Cell suspensions (20% W/V, wet cells) were passed through a Microfluidizer (Microfluidics, Inc) at 12,000 psi (two passages) and disintegrated cells were centrifuged at 25,000×g for 30 min at 4° C. The supernatant solution obtained after centrifugation is referred to as cell extract.
The cell extracts was used in deprotecting the CBZ-group from various compounds. It was useful in deprotecting CBZ-groups in various processes. Various D and L-CBZ-protected amino acids were incubated with the cell extract at 42° C. for 18 -20 hours. The reactions were stopped by addition of 2 volumes of 50% acetonitrile containing 0.4% trifluro acetic acid (TFA). The results shown in table 2 indicate that the enzyme is specific in hydrolyzing the CBZ-group from CBZ-protected L-amino acids.

CBZ-deprotecting enzyme = experiment: Deprotection of CBZ-containing compounds with purified CBZ-deprotecting enzyme; type: biochemical, Sphingomonas paucimobilis; settings: for % Conversion: purified enzyme
Method: Compound A or CBZ-phenylalanine at 0.5mg was incubated with 0.4 mL of cell extract/fractions in 50 mM phosphate buffer, pH 7 at 45° C. for 18 hours. The reaction is stopped by the addition 1 ml of 50% acetonitrile containing 0.4% TFA. The samples were filtered and analyzed by HPLC for product and starting material. All the purification steps were carried out at room temperature. The purification of the enzyme was carried out using CBZ-L-phenylalanine as the substrate. The cell extract, prepared as above, was batch adsorbed with DEAE-cellulose (pre-equilibrated with buffer A) for 2 hours. The follow-through, which contained the active enzyme, was precipitated with ammonium sulfate (516 g/L) with constant stirring for 2 hours. The resulting precipitate obtained by centrifugation (15,000 rpm at 4° C.) was solubilized in buffer A containing 1M ammonium sulfate, loaded on to phenylsepharose (20 mL column which was pre-equlibriaiated with buffer A containing 1M ammonium sulfate). The column was sequentially washed with the buffer A containing 1M ammonium sulfate, 0.5M ammonium sulfate and 0.2M ammonium sulfate. Finally, the enzyme was eluted with buffer A. The fractions containing active enzyme were pooled (30 mL) and concentrated with Amicon PM-10 membrane (8 mL). The enzyme was then loaded on to S-200 gel-filtration column (400 mL column). The enzyme was eluted with buffer A with a flow rate of 0.8 mL/min. With these steps the enzyme was purified more than 150-fold with a specific activity of 13.9 units/mg protein (table 3). The unit is defined as μmole of product formed/min/mg of protein. The enzyme is a […] protein with a molecular weight of 154,000 daltons with a subunit molecular weight of 45,000 daltons, as determined by SDS-PAGE. The purified enzyme prepared as described in this section has been used to deprotect CBZ-containing compounds as shown in table 4.

[3] = system: Sphingomonas paucimobilis; experiment: Biotransformation (CBZ deprotection) using whole cells; type: cell-based; settings: whole cells grown in medium B with 25 mg substrate, 28° C., 48 hours, HPLC
Method: In this process, the Sphingomonas paucimobilis was grown in 25 mL of medium B containing 25 mg of substrate (Compound A or CBZ-L-Phenylalanine) in a 250-mL flask. The flask was incubated at 28° C. and 250 rpm on a shaker. After 48 hours of biotransformation, the cells were removed by centrifugation. The supernatant containing the product [4S-(4α,7α,10aβ)]-Octahydro-5-oxo-4-amino-7H-pyrido-[2,1-b] [1,3]thiazepine-7-carboxylic acid, methyl ester (Compound B) or L-Phenylalanine was analyzed by HPLC.
as §1, §2

## O=C(N[C@@H](Cc1ccccc1)C(=O)O)OCc1ccccc1 [CBZ-L-Phenylalanine, N-α-CBZ-L-phenylalanine]
[1]
  deprotection of the substrate: complete deprotection
[2]
  % Conversion: 100%
CBZ-deprotecting enzyme
  % Conversion: 100%
[3]
  % Conversion: 100%

## COC(=O)[C@@H]1CCC[C@@H]2SCC[C@H](NC(=O)OCc3ccccc3)C(=O)N21 [Compound A, [4S-(4α,7α, 10aβ)]-Octahydro-5-oxo-4-[[(phenylmethoxy)carbonyl]amino]-7H-pyrido-[2,1-b] [1,3]thiazepine-7-carboxylic acid, methyl ester]
[2]
  % Conversion: 95%
CBZ-deprotecting enzyme
  % Conversion: 100%
[3]
  % Conversion: 100%

## CC(C)C[C@@H](NC(=O)OCc1ccccc1)C(=O)O [N-α-CBZ-D-Leucine]
[2]
  % Conversion: 1.2%

## O=C(O)[C@H]1CCCN1C(=O)OCc1ccccc1 [N-α-CBZ-D-Proline]
[2]
  % Conversion: 0%

## O=C(N[C@H](Cc1ccccc1)C(=O)O)OCc1ccccc1 [N-α-CBZ-D-phenylalanine]
[2]
  % Conversion: 0%

## O=C(N[C@H](Cc1ccc(O)cc1)C(=O)O)OCc1ccccc1 [N-α-CBZ-D-tyrosine]
[2]
  % Conversion: 1.58%

## CC(C)C[C@H](NC(=O)OCc1ccccc1)C(=O)O [N-α-CBZ-L-Leucine]
[2]
  % Conversion: 100%

## NCCCC[C@H](NC(=O)OCc1ccccc1)C(=O)O [N-α-CBZ-L-Lysine, N-α-CBZ-L-lysine]
[2]
  % Conversion: 52%

## O=C(O)[C@@H]1CCCN1C(=O)OCc1ccccc1 [N-α-CBZ-L-Proline]
[2]
  % Conversion: 100%

## O=C(N[C@@H](Cc1ccc(O)cc1)C(=O)O)OCc1ccccc1 [N-α-CBZ-L-tyrosine]
[2]
  % Conversion: 100%

## O=C(NCCCC[C@H](NC(=O)OCc1ccccc1)C(=O)O)OCc1ccccc1 [N-α-ε-(CBZ)2-L-Lysine]
[2]
  % Conversion: 24%

## N[C@H](CCCCNC(=O)OCc1ccccc1)C(=O)O [N-ε-CBZ-D-Lysine]
[2]
  % Conversion: 7%

## O-α-CBZ-L-tyrosine
[2]
  % Conversion: 100%

B1: CBZ-deprotecting enzyme: enzyme purified from Sphingomonas paucimobilis ATCC 202027 that removes CBZ from protected amines and alcohols; SEQ ID NO:2 (protein, listed as Sphingomonas paucimobilis)
chain: MVQPTPTPQSELPGLIARDMEGLMTLYRDLHANPELSLQEVNTAAKLAKRLKAMKFDVTEKVGGTGVVAVMKNGSGPVLLIRADMDGLPVVEQTGLDFASKVRTKTPEGVETGVMHACGHDTHMTAFIETAKLLSSQKDKWKGTLVMILQPAEEVGKGARDMLEDGLYTRFPRPTHAIAFHDAANLQAGVVGYTPGYALANVDSVDIVVKGLGGHGAYPQTTRDPIVLGSRIVTSLQTLVSREQDPQDPAVVTVGSFQAGAKHNIIPDQALLLLTVRSYSDETRAKLIKGIERIARGEAIAAGVPDDKMPVVSVKDEFTPSTYNPPEFAEQMGALLKGHFAEGRVVKTPAVMGGEDFGRFYRADKSINSFIFWVGGVPADKMAAAQAGQITLPSLHSPFWAPEADKVIATASEAMTVLAMDILKKD
CBZ-deprotecting enzyme; purified enzyme after S-200 gel filtration, CBZ-L-phenylalanine as substrate
  specific activity: 13.9 units/mg protein
